Source: patent publication US5411969A, “Antihyperlipidemic/antioxidant dihydroquinolines” (Bristol-Myers Squibb Company, priority 1993, dated 1995)
Values belong to the molecule of their own block, whether it stands above or below them.

Legend:
hamster LDL = assay: Ex vivo LDL lipid peroxidation assay in hamsters (Cu++ oxidation; conjugated dienes or lipid peroxides); settings: 17 days; for Conj. Dienes lag ratio: treated/control
LDL = assay: In vitro LDL oxidation (Cu++), conjugated diene formation; type: biochemical, rabbit; settings: for LDL Oxd. Inhib. mean lag ratio: 10 μM, rabbit plasma LDL, Cu++, treated/control lag time
[1] = system: human hepatoma HepG2 cells; assay: HepG2 cell culture model: cholesterol synthesis by 14C-acetate incorporation; type: cell-based; settings: 4 h incubation, read-out: Cholesterol Biosynthesis
Method: (§1) The human hepatoma HepG2 cell culture model was employed to compare the intrinsic activities of the representative compounds of the present invention relative to the tocotrienols. HepG2 cells were incubated with the indicated compounds for 4 hours at 10 μM. Cholesterol synthesis was assayed by ^14 C-acetate incorporation over the final hour of incubation, and HMG-CoA reductase suppression (specific activity) was assayed in the microsomal fraction isolated from parallel cultures at the end of the 4 hour incubation.

[2] = In vivo hypocholesterolemic activity in normocholesterolemic chickens: total serum cholesterol and HDL/LDL cholesterol pools; set-up: species or system chicken; settings: male chickens, orally dosed for 4 weeks at 4 mg/kg/day
Method: (§2) Hypocholesterolemic activity was evaluated for representative compounds of the present invention using γ-tocotrienol as a control in normocholesterolemic chickens. Newborn male chicks (6-10 for each group) were raised on a standard corn-soybean-based control diet for two weeks and then were switched to either control or experimental diets for four weeks. Drug treatment consisted of the addition of test compound to the corn-soybean-based. At the end of the feeding period, all the birds were fasted (about 36 hours) and refed (about 48 hours) to induce cholesterolgenic enzymes prior to sacrifice. The specific activity of HMG-CoA reductase, total serum cholesterol levels, and HDL/LDL cholesterol pools were examined (Table II).
(§3) Effects of Compounds of the present invention on Lipid
(§4) Parameters in Male Chickens
(§5) Orally dosed for 4-weeks at 4 mg/kg/day

HMG-CoA reductase [3] = assay: In vivo evaluation in normocholesterolemic chickens: specific activity of HMG-CoA reductase; set-up: species or system chicken; settings: male chickens, orally dosed for 4 weeks at 4 mg/kg/day
Method: as §2, §3, §4, §5

HMG-CoA reductase [4] = assay: HepG2 cell culture model: HMG-CoA reductase suppression (specific activity, microsomal fraction); type: cell-based, human; settings: 10 μM, 4 h incubation, HepG2 cells
Method: as §1

[5] = Redox potential by cyclic voltammetry; type: physicochemical; settings: for Oxd. Potential: cyclic voltammetry
Excerpt: One method for the measurement of general antioxidant capacity is stopped-flow kinetic analysis. (Mukai, et al., Bull. Chem. Soc. Jpn., 59: 3113-3116 (1986); Mukai, et al., J. Org. Chem., 54: 557-560 (1989); Mukai, et al. J. Org. Chem., 53: 430-432 (1988)). This is a sophisticated setup wherein, one measures radical transfer from a stable radical, (for example 2,6-di-tert-butyl-4-(4-methoxyphenyl)phenoxy), to a test compound spectrophotometrically as a function of time. […] (Mukai, et al., Bull. Chem. Soc. Jpn., 59: 3113-3116 (1986); Mukai, et al., J. Org. Chem., 54: 557-560 (1989); Mukai, et al. J. Org. Chem., 53: 430-432 (1988)). Voltammetry has been used by Moldeus et al. to study the antioxidant capacity of structurally related dibenzo[1,4]dichalcogenines as inhibitors of lipid peroxidation. (Cotgreave, et al., Biochem. Pharm., 42: 1481-85 (1991)). In their case, a strong correlation between voltammetric potential and the ability to inhibit lipid peroxidation was observed.
(Mukai, et al., J. Org. Chem., 53: 430-432 (1988); Mukai, et al., J. Org. Chem., 54: 552-556 (1989); Mukai, et al., J. Org. Chem., 56: 4188-4192 (1991)).

[6] = in vivo; cited from earlier work
cholesterol fed rabbits = settings: cited from earlier work

SMILES: CCOc1ccc2c(c1)C(C)=CC(C)(C)N2 [ETHOXYQUIN]
lipid peroxide formation in LDL, % of Control, 1.5 h (hamster LDL; 75 mg/kg/d oral): 0 % of Control | lipid peroxide formation in LDL, % of Control, 3.0 h (hamster LDL; 75 mg/kg/d oral): 13 % of Control | Conj. Dienes lag ratio (hamster LDL; 75 mg/kg/d oral): 1.81 | LDL Oxd. Inhib. mean lag ratio (LDL): 1.21

SMILES: Cc1c(O)cc2c(c1C)OC(C)(CCCC(C)CCCC(C)CCCC(C)C)CC2 (centres unmarked) [γ-Tocopherol]
LDL Oxd. Inhib. mean lag ratio (LDL): 1.17

SMILES: CC(C)=CCC/C(C)=C/CC/C(C)=C/CCCCc1ccc2c(c1)C(C)=CC(C)(C)N2 [Compound 11, 1,2-Dihydro-2,2,4-Trimethyl-6-[6,10,14-Trimethyl-5(E),9(E), 13-Pentadecatrienyl]Quinoline]
activity at 10 µM [1]: 89%

SMILES: Cc1c(C)c2c(c(C)c1O)CCC(C)(CCCC(C)CCCC(C)CCCC(C)C)O2 (stereo not drawn) [α-Tocopherol]
lipid peroxide formation in LDL, % of Control, 1.5 h (hamster LDL; 50 mg/kg/d oral): 15 % of Control | lipid peroxide formation in LDL, % of Control, 3.0 h (hamster LDL; 50 mg/kg/d oral): 36 % of Control | Conj. Dienes lag ratio (hamster LDL; 50 mg/kg/d oral): > 3 | LDL Oxd. Inhib. mean lag ratio (LDL): 1.01

SMILES: CC1=CC(C)(C)Nc2ccc(OCCC/C=C(\C)CCc3cccc(C(F)(F)F)c3)cc21 [Compound 18]
activity at 10 µM [1]: 42% | HDL-C [2]: 93.8 % of Control | LDL-C [2]: 26.0 % of Control | Tot.-C [2]: 61.2 % of Control | HMGR (HMG-CoA reductase [3]): 66.4 % of Control

Oxd. Potential [5]: 0.47 Volts | oxidation potential compared with standard reference agents ([5]; over standard reference agents, in words): lower oxidation potential
SMILES: CC(C)=CCC/C(C)=C/CC/C(C)=C/CCCOc1ccc2c(c1)C(C)=CC(C)(C)N2 [Compound 4, 1,2-Dihydro-2,2,4-Trimethyl-6-[(5,9,13-Trimethyl-4(E),8(E),1 2-tetradecatrienyl)oxy]Quinoline]
HMGR Suppression (HMG-CoA reductase [4]): 40% of Control | activity at 10 µM [1]: 48% | lipid peroxide formation in LDL, % of Control, 1.5 h (hamster LDL; 50 mg/kg/d oral): 3 % of Control | lipid peroxide formation in LDL, % of Control, 3.0 h (hamster LDL; 50 mg/kg/d oral): 31 % of Control | Conj. Dienes lag ratio (hamster LDL; 50 mg/kg/d oral): 1.57 | HDL-C [2]: 89.0 % of Control | LDL-C [2]: 45.3 % of Control | Tot.-C [2]: 65.9 % of Control | HMGR (HMG-CoA reductase [3]): 83.8 % of Control | LDL Oxd. Inhib. mean lag ratio (LDL): 1.80 | LDL protective capacity compared with standard reference agents (LDL; in vitro and ex vivo (Tables III, IV), in words): superior LDL protective capacity

SMILES: O=C1O[C@H]([C@@H](O)CO)C(O)=C1O [Na Ascorbate]
lipid peroxide formation in LDL, % of Control, 1.5 h (hamster LDL; 50 mg/kg/d oral): 8 % of Control | lipid peroxide formation in LDL, % of Control, 3.0 h (hamster LDL; 50 mg/kg/d oral): 91 % of Control | Conj. Dienes lag ratio (hamster LDL; 50 mg/kg/d oral): 1.33

SMILES: Cc1cc(C(C)(C)C)c(O)c(C(C)(C)C)c1 [Butylatedhydroxytoluene]
LDL Oxd. Inhib. mean lag ratio (LDL): 1.38

Oxd. Potential [5]: 1.20 Volts
SMILES: CC(C)=CCC/C(C)=C/CC/C(C)=C/CCCSc1ccc2c(c1)C(C)=CC(C)(C)N2 [Compound 8, 1,2-Dihydro-2,2,4-Trimethyl-6-[(5,9,13-Trimethyl-4(E),8(E),1 2-tetradecatrienyl)thio]Quinoline]
activity at 10 µM [1]: 3% | HDL-C [2]: 98.2 % of Control | LDL-C [2]: 99.1 % of Control | Tot.-C [2]: 100.9 % of Control | LDL Oxd. Inhib. mean lag ratio (LDL): 1.64

SMILES: CC(C)=CCC/C(C)=C/CC/C(C)=C/CCC1(C)CCc2cc(O)c(C)c(C)c2O1 (centres unmarked) [γ-Tocotrienol]
HMGR Suppression (HMG-CoA reductase [4]): 65% of Control | activity at 10 µM [1]: 29% | lipid peroxide formation in LDL, % of Control, 1.5 h (hamster LDL; 50 mg/kg/d oral): 7 % of Control | lipid peroxide formation in LDL, % of Control, 3.0 h (hamster LDL; 50 mg/kg/d oral): 67 % of Control | Conj. Dienes lag ratio (hamster LDL; 50 mg/kg/d oral): 1.48 | Tot.-C [2]: 76.3 % of Control | LDL Oxd. Inhib. mean lag ratio (LDL): 1.27

SMILES: CC(C)(Sc1cc(C(C)(C)C)c(O)c(C(C)(C)C)c1)Sc1cc(C(C)(C)C)c(O)c(C(C)(C)C)c1 [PROBUCOL, 4,4'-[(1-methylethylidene)bis(thio)]-bis[2,6-bis(1,1-dimethylethyl)]]
bioavailability [6]: suffers from bioavailability problems | lipid peroxide formation in LDL, % of Control, 1.5 h (hamster LDL; 50 mg/kg/d oral): 48 % of Control | lipid peroxide formation in LDL, % of Control, 3.0 h (hamster LDL; 50 mg/kg/d oral): 93 % of Control

SMILES: CC1(C)C=C(CS(=O)(=O)O)c2cc(Cc3ccc4c(c3)C(CS(=O)(=O)O)=CC(C)(C)N4)ccc2N1 [MTDQ-DA]
effects on various lipid parameters (cholesterol fed rabbits; cholesterol fed rabbits): fairly modest effects on various lipid parameters | plaque progression (cholesterol fed rabbits; relative to the cholesterol fed rabbit controls): completely inhibited plaque progression
